Columns and labels:
[1] = biological target: T1, GST-amphSH3 (dimeric) (Mus musculus, UniProt Q7TQF7); experiment: SPR, dimeric GST-amphSH3 on immobilized peptides; assay type: binding, murine; details: below 1 µM
T1 construct: murine Ampiphysin1 SH3 domain residues 607–686); made in house; host or cells: E. coli BL21-CodonPlus (DE3)-RIPL
T1 sequence (Q7TQF7 607-686): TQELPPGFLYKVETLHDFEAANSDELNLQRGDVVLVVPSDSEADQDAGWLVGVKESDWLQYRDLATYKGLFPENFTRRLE

[2] = biological target: T2, Ntr-bSUMO-amphSH3 complex (tetrameric, neutravidin) (Mus musculus, UniProt Q7TQF7); experiment: SPR, tetrameric Ntr-bSUMO-amphSH3 on immobilized peptides; assay type: binding, murine; details: in the tested concentration range
T2 construct: murine Ampiphysin1 SH3 domain residues 607–686); made in house; host or cells: E. coli BL21 (DE3) co-expressing BirA, with biotin
T2 sequence (P02701 25-152 partner, one chain of several): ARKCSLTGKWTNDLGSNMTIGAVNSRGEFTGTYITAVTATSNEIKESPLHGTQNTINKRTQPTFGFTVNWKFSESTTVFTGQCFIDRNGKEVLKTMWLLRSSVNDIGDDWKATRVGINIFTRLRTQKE

[3] = test system: membrane capacitance of NIH 3T3 cells (balance between exocytosis and endocytosis); experiment: Cell capacitance in whole cell patch-clamp; assay type: cell-based; details: 10th minute over 1st minute of whole cell recording; peptides 1 mM; paired t-test
Description: Cells were patched with pipettes made of borosilicate glass (GC150F, Harvard Apparatus) and pulled with a vertical Narishige puller (World Precision Instruments). The solution contained (in mM): 130–140 KCH3SO3, 1 EGTA, 0.1 CaCl2, 10–20 HEPES, 4 ATP (sodium or magnesium salt), 0.4 Na-GTP (or GTPγS when indicated), 5 phosphocreatine and 3 sodium ascorbate. pH was adjusted to 7.2 using KOH and osmolarity to ~300 mOsm L^−1. Sodium ascorbate was omitted in earlier recordings but was added for better stability. Chloride ions either came from 2 mM KCl, 10 mM NaCl or 4 mM MgCl2 (when Na-ATP was used) in various trials. All salts were purchased from Sigma-Aldrich. Cells were voltage-clamped at −60 mV with an EPC10 amplifier (HEKA) with series resistance and cell capacitance estimation every 4 s in the whole cell mode. The digital triggers of the amplifier were used to drive the electrovalves for pH changes. Cell viability and dialysis efficiency were made sure of by monitoring […] throughout the recording using the Patchmaster software (HEKA): series resistance should remain below 10 MΩ and holding current should remain above −100 pA. If either of these criteria was not respected (except holding current for recordings in GTPγS, see Supplementary Fig. 3D), the recording was not considered for analysis. On a given experimental day at least one control recording (i.e. without any peptide) was performed to ensure recording quality. All these recordings were pooled in the ‘control’ condition (n = 63 on 42 experimental days). […]
Supplementary Figure 5: Characteristics of the whole cell recordings in the different conditions of this study. A, Scheme of the equivalent electrical circuit of a cell recorded in the whole cell configuration. […]
This is likely due to the activation of GTP dependent trimeric G proteins which activate various channels in the presence of GTPγS, thereby increasing the holding current. […] F, Ratios of Cm recorded during the 10 th minute of recording over Cm recorded during the 1st minute. […]

Row | Compound | binding of GST-amphSH3 [1] | binding of Ntr-bSUMO-amphSH3 [2] | change of Cm, Cm(10')/Cm(1') [3]
1 | Ac-YPPPQVPSRPNRAPPG-NH2 [D15, reference compound] | no measureable binding | no binding was observed | –
2 | CC(=O)N[C@@H](Cc1ccc(O)cc1)C(=O)N[C@@H](CCCCn1cc(CCC(=O)NCCCOCCOCCOCCCNC(=O)CCC(=O)NCCCOCCOCCOCCCNC(=O)CCC(=O)NCCCOCCOCCOCCCNC(=O)CCC(=O)N2CCC[C@H]2C(=O)N2CCC[C@H]2C(=O)N2CCC[C@H]2C(=O)N[C@@H](CCC(N)=O)C(=O)N[C@H](C(=O)N2CCC[C@H]2C(=O)N[C@@H](CO)C(=O)N[C@@H](CCCNC(=N)N)C(=O)N2CCC[C@H]2C(=O)N[C@@H](CC(N)=O)C(=O)N[C@@H](CCCNC(=N)N)C(=O)N[C@@H](C)C(=O)N2CCC[C@H]2C(=O)N2CCC[C@H]2C(=O)NCC(N)=O)C(C)C)nn1)C(=O)NCCCOCCOCCOCCCNC(=O)CCC(=O)NCCCOCCOCCOCCCNC(=O)CCC(=O)NCCCOCCOCCOCCCNC(=O)CCC(=O)N1CCC[C@H]1C(=O)N1CCC[C@H]1C(=O)N1CCC[C@H]1C(=O)N[C@@H](CCC(N)=O)C(=O)N[C@H](C(=O)N1CCC[C@H]1C(=O)N[C@@H](CO)C(=O)N[C@@H](CCCNC(=N)N)C(=O)N1CCC[C@H]1C(=O)N[C@@H](CC(N)=O)C(=O)N[C@@H](CCCNC(=N)N)C(=O)N[C@@H](C)C(=O)N1CCC[C@H]1C(=O)N1CCC[C@H]1C(=O)NCC(N)=O)C(C)C [dD15-N] | – | – | no significant decrease in Cm
